“Also recorded” adds a separate entry of the source. Read-outs that look alike come from different tables or passages of the source.
Assays:
C57BL/6 mice [1] = conditions: general statement on the SAT test; cited from earlier work
C57BL/6 mice [2] = assay: Spontaneous alternation task (SAT) test of short-term memory in T-maze; type: in vivo, mouse; conditions: for alternation (short-term memory) in healthy mice / alternation (short-term memory) in scopolamine-treated mice: 30 mg/kg i.p. 8 hours prior to the SAT; for alternation (short-term memory) in healthy mice: administered alone; for alternation (short-term memory) in scopolamine-treated mice: scopolamine 1 mg/kg i.p. 30 minutes prior
NF-κB [3] = assay: In vivo bio-photonic imaging of NF-κB luciferase reporter transgenic mice; design: species or system mouse; conditions: for NF-κB activation in brain (dorsal brain images): Example 3
NF-κB [4] = assay: Luciferase imaging of 1 mm coronal brain sections from NF-κB transgenic mice; type: in vivo, mouse; conditions: 1 and 10 mg/kg, 6-hour time point
Description: Evaluation of tiapamil in the NF-κB transgenic mouse line was repeated essentially as described in Example 1 and whole-body images were collected at the 6-hour time point. Brains were rapidly removed, chilled in ice-cold saline and sliced into 1 mm coronal sections. The sections were then placed onto glass slides, covered with luciferin solution (Luciferase Assay System substrate, Promega) and subsequently imaged in an IVIS 200 imaging system (Caliper Corp.) to evaluate effect of tiapamil on regional distribution of luciferase activity in the brain.

Sprague-Dawley rats = assay: Novel object recognition (NOR) test of long-term memory; type: in vivo, rat
Description: The novel object recognition (NOR) paradigm is a rodent model of recognition learning memory retrieval and takes advantage of the spontaneous behavior of rodents to investigate a novel object by comparison with a familiar object (Ennaceur & Delacour (1988) Behav Brain Res. 31:47-59). NOR has been employed extensively to indicate potential cognition-enhancing properties of test compounds.
The objective of this study was to test cognition-enhancing properties of tiapamil using the NOR test of long-term memory in healthy male rats. Adult male Sprague-Dawley rats were used in this study. Animals were placed in the experimental rooms at postnatal day 80 and assigned unique identification numbers (tail marked). Pairs were housed in polycarbonate cages with filter tops and acclimated for 7 days prior to commencing any studies. Animals were maintained in a 12 hour light/dark cycle with room temperature maintained at 22±2° C. with relative humidity maintained at approximately 50%. Food and water were provided ad libitum. All animals were examined, handled, and weighed for two days prior to initiation of the study to assure adequate health and suitability and to minimize non-specific stress associated with manipulation. Each animal was randomly assigned across treatment groups (8 animals per group) and balanced by cage numbers. […]
Tiapamil (10 or 30 mg/kg) was dissolved in saline and administered i.p. 1 or 8 hours prior to training. […] The rats were assessed for cognitive ability in a test apparatus comprising an open-field arena placed in a sound-attenuated room under dimmed lighting. […] All tests were video-scored blind. […] This 10-minute training period, T1, was recorded for subsequent analysis if necessary. […] After 24 hours, each rat was placed again in the test arena for 10 minutes (T2) in presence of a copy of the familiar object and a novel object, and the time spent exploring both objects was recorded. […] The NOR index was measured as the ratio of time spent exploring the novel object over total time spent exploring both objects (familiar+novel), during retention session T2.

[5] = in vivo; cited from earlier work
NF-κB [6] = assay: In vivo bio-photonic imaging of NF-κB luciferase reporter transgenic mice; design: species or system mouse; conditions: for NF-κB activation in the brain: Example 4
Method: The animal used to establish this criterion is preferably a laboratory animal, more preferably a rodent, illustratively a mouse. […] In this technique, a test compound, in this case a Ca^2+ channel blocker, is administered by intravenous (i.v.) injection to transgenic mice having a firefly luciferase reporter driven by one or more NF-κB response elements fused to the reporter (NF-κB::LUC mice). NF-κB expression, nuclear translocation and binding to the response elements in any anatomical or sub-anatomical region of a mouse results in activation of the luciferase reporter in that region. Activated luciferase, in presence of a luciferin substrate, emits light which can be detected and quantitated, and can be used in whole-body imaging to identify specific anatomical or sub-anatomical regions where the luciferase is activated as a result of NF-κB expression. Mice can be anesthetized and imaged at time intervals after administration of the test compound to reveal temporal as well as spatial distribution of NF-κB expression.
In vivo bio-photonic imaging was used to investigate temporal and spatial modulation of physiological processes following acute tiapamil administration to mice. For these studies we employed an NF-κB luciferase transgenic line that was constructed using three NF-κB response elements fused to a firefly luciferase reporter gene. The effect of tiapamil on NF-κB activation was monitored as modulation of detectable luciferase reporter activity, a surrogate for NF-κB activation and nuclear translocation with subsequent binding to the response elements of the reporter. Luciferase activity was detected by its ability to cleave luciferin, a luciferase substrate. Light emitted was detected and analyzed using a highly sensitive CCD imaging system.
For the present study, female NF-κB transgenic mice (5 per treatment) received tiapamil i.v. at 1 or 10 mg/kg in a saline vehicle, or vehicle control. At 2, 4 and 6 hours after administration, the animals were anesthetized and imaged. Visual and quantitative analysis was then performed based on counting photons of light emitted from specific anatomical regions. […] The data are depicted quantitatively in FIG. 1.

mouse cerebellar neurons = conditions: cited from earlier work
mice = assay: Lethality of phenylalkylamine Ca2+ channel blockers in mice; type: in vivo; conditions: 10 mg/kg i.v.
Description: […]. The doses administered for these studies were selected to reflect the previously characterized potency of each of the drugs on blocking L-type Ca^2+ channel function. […].

young adult mice = conditions: cited from earlier work
[7] = test system: nucleus basalis magnocellularis lesioned rats; conditions: cited from earlier work

COc1cc2c(cc1OC)C(=O)C(CC1CCN(Cc3ccccc3)CC1)C2 (centres unmarked) [donepezil]
spontaneous alternation (C57BL/6 mice [1]): enhanced

CN1[C@@H]2C[C@@H](OC(=O)[C@H](CO)c3ccccc3)C[C@H]1[C@@H]1O[C@@H]12 [scopolamine]
spontaneous alternation (C57BL/6 mice [1]): impaired

O=C(O)c1cc(/N=N/c2ccc(S(=O)(=O)Nc3ccccn3)cc2)ccc1O [sulfasalazine]
effect on tiapamil-induced short-term memory enhancement (C57BL/6 mice [2]; sulfasalazine 3 mg/kg i.p. co-administered with tiapamil 30 mg/kg 8 hours prior to the SAT, healthy mice): loss of tiapamil's memory-enhancing effects | measureable NF-κB activity (NF-κB [3]; Example 5, co-administration of tiapamil and high-dose sulfasalazine): increased amount of measureable NF-κB activity | measureable NF-κB activity (NF-κB [3]; Example 5, high-dose sulfasalazine alone): increased amount of measureable NF-κB activity

COc1ccc(CCN(C)CCCC2(c3ccc(OC)c(OC)c3)S(=O)(=O)CCCS2(=O)=O)cc1OC [tiapamil, N-(3,4-dimethoxyphenethyl)-2-(3,4-dimethoxyphenyl)-N-methyl-m-dithian-2-propylamin-1,1,3,3-tetroxide]
luciferase expression in all regions of the brain evaluated (NF-κB [4]): dramatic effect | NOR index 24 hours after training (Sprague-Dawley rats; 10 mg/kg i.p., 1 hour): significantly increased NOR index | NOR index 24 hours after training (Sprague-Dawley rats; 10 mg/kg i.p., 8 hours): significantly increased NOR index | NOR index 24 hours after training (Sprague-Dawley rats; 30 mg/kg i.p.): not effective | efficacy on aspects of ischemic disease [5]: ineffective | NF-κB activation in the brain (NF-κB [6]; 10 mg/kg i.v., surviving animals, 2, 4, 6 hours, 10 mg/kg): robust effect; also recorded: substantially increased | NF-κB activation in peripheral anatomical regions (NF-κB [6]; i.v. 1 or 10 mg/kg): no effect | NF-κB expression in the head (NF-κB [6]; i.v. 1 or 10 mg/kg, 4 and 6 hours after treatment): dose-dependent increase | alternation (short-term memory) in healthy mice (C57BL/6 mice [2]): enhances short-term memory | alternation (short-term memory) in healthy mice (C57BL/6 mice [2]; listed as Tiapamil): increased the number of alternation events | alternation (short-term memory) in scopolamine-treated mice (C57BL/6 mice [2]): reverses memory deficits | alternation (short-term memory) in scopolamine-treated mice (C57BL/6 mice [2]; listed as Tiapamil): prevented scopolamine-induced impairment | NF-κB activation in brain (dorsal brain images) (NF-κB [3]; 10 mg/kg i.v., 2, 4 and 6 hours): robust effect | NF-κB signaling in the brain (light emission from head region, dorsal view) (NF-κB [3]; Example 5, i.p., 2, 4, 6 and 8 hours): enhanced

COc1ccc(CCN(C)CCCC(C#N)(c2ccc(OC)c(OC)c2)C(C)C)cc1OC (centres unmarked) [verapamil]
genetically-inhibited neurite extension (mouse cerebellar neurons; mouse cerebellar neurons): could restore | neuroprotection (mouse cerebellar neurons; normal neurons exposed to high concentrations of ethanol): neuroprotective | Deaths (n = 5) (mice): 5 | linear maze acquisition (young adult mice; at the most effective retention dose): failed to enhance acquisition | linear maze retention (young adult mice; young adult mice): enhancement effects at three doses | retention of passive avoidance learning (young adult mice; young adult mice): failed to facilitate retention | acquisition and performance aspects of active avoidance ([7]; 2.5 and 5 mg/kg): improved | acquisition and performance aspects of active avoidance ([7]; lower (1 mg/kg) and higher (10 mg/kg) doses): ineffective

gallopamil
efficacy on aspects of ischemic disease [5]: ineffective | NF-κB activation in the brain (NF-κB [6]; 1 mg/kg i.v., 3 surviving animals, 1 mg/kg): induced NF-κB activation; also recorded: increased NF-κB expression in the brain | NF-κB activation in the brain (NF-κB [6]; 10 mg/kg i.v., surviving animals, 2, 4, 6 hours): minor to no change | NF-κB activation in brain (dorsal brain images) (NF-κB [3]; 0.5 mg/kg i.v., 2- and 4-hour time points): marginal effect | NF-κB activation in brain (dorsal brain images) (NF-κB [3]; 0.5 mg/kg i.v., 6-hour time point): more dramatic effect
